Test results: patent US20140005269A1, “POLYMERIC MATRIX OF POLYMER-LIPID NANOPARTICLES AS A PHARMACEUTICAL DOSAGE FORM” (priority 2010, published 2014)

Experiment: In vitro drug release, USP 32 apparatus II dissolution
Assay type: physicochemical
Conditions: pH 6.8 (standard buffer KH2PO4/NaOH)
Protocol: Drug release was assessed using a USP 32 apparatus II dissolution system (Erweka DT 700, Erweka GmbH, Heusenstamm, Germany). Temperature and stirring rate was at 37±0.5° C. and 50 rpm respectively while the dissolution media was 0.1N HCl, buffers pH 1.5 and 4.5. Samples were withdrawn at predetermined intervals and replaced with the same volume of fresh medium, and the quantity of L-dopa released was quantified using UV spectroscopy. In vitro drug release studies were also undertaken for E3 matrices formulated from IPBs in varying normalities of acetic acid in buffer pH 1.5 (standard buffer KCl/HCl), pH 4.5 (0.025M KH2PO4/H2PO4) and pH 6.8 (standard buffer KH2PO4/NaOH) was employed to observe the behavior of the matrices and not for drug release as the model drug L-dopa was unstable at such pH values.
The incorporation of polymer-lipid nanoparticles into the IPB was undertaken as described earlier via direct compression. However, the L-dopa-loaded polymer-lipid nanoparticles was incorporated instead of L-dopa alone while the in vitro drug release was assessed as described earlier.

stability of the model drug in dissolution medium: unstable
Compound: N[C@@H](Cc1ccc(O)c(O)c1)C(=O)O [L-dopa, 3-(3,4-dihydroxyphenyl)-L-alanine]
